Where two headings read alike, the source gives them in different places.
Key:
[1] = tested on: rats in obese model; test: Effect on BMI of rats in obese model (formula feed); assay type: in vivo, SD rats; conditions: for BMI / BMI of animals compared with the model group (in words): 4 weeks; for BMI: model group 7.73 ± 0.27
Description: Except the blank group and the model group, each group had three subgroups: low dose, middle dose, and high dose. There were 6 animals in each subgroup.
The animals in the blank group were fed with a common feed every day. The animals in each group except the blank group were fed with a formula feed every day. The formula feed contained 5% of cholesterol, 6% of sucrose, 20% of egg yolk, 6% of peanut butter, 12% of whole milk powder, 6% of sesame oil (the percentage was by mass) and other ingredients of the common feed.
Each test drug was mixed with 5% methylcellulose solution; the animals in each group except the blank group and the model group were administered intragastrically respectively with a low dose of 100 mg/kg, a middle dose of 400 mg/kg and a high dose of 1,600 mg/kg; the animals in the blank group and the model group were not administered with the test drug and they were administered intragastrically with the same amount of 5% methylcellulose solution respectively. The intragastric administration was conducted once a day continuously for 4 weeks.
During the test process, the animals in each group were able to eat normally without anorexia. The stool characteristics were normal and no obvious diarrhea occurred.
After the last drug administration, the animals in each group were fasted for 12 h, during which water was provided, and then the animals were weighed.
Body length (distance from the nose to the anus) was measured after the animals were anesthetized with sodium pentobarbital and body mass index (BMI) (BMI=weight (kg)÷(height (m))^2) was calculated.
Statistical analysis was conducted by using the data in each group and the main results were screened and shown in Table 3 (Note: some test drugs in the table only list the middle-dose subgroups).

[2] = tested on: patients diagnosed with gastric ulcer or duodenal ulcer; conditions: 4 weeks
Description: (§1) Efficacy and safety of the compound of the present disclosure in treating ulcers were studied in patients suffering from gastric ulcer or duodenal ulcer.
(§2) The dosage was based on a standard dosage of 3 g per day and should be increased or decreased according to individual conditions of the patients.
The number of ulcer foci and the area of ulcer foci (mm^2) of each patient were checked before and after the treatment, and the efficacy after treatment was judged according to the following criteria:
Completely healed: after the treatment, the ulcers and surrounding inflammation all disappeared after an endoscopic examination;
Basically healed: after the treatment, the ulcers disappeared in an endoscopic examination, but there was still inflammation; and partially healed: after the treatment, the area of the ulcers was reduced by 50% or more in an endoscopic examination; and
Unhealed: after the treatment, the area of the ulcers was reduced by less than 50% in an endoscopic examination.
The healing rate was used as an indicator of efficacy. Healing rate=(number of completely healed patients+number of basically healed patients)÷total number of patients in this group×100%.

[3] = tested on: patients diagnosed with gastric ulcer or duodenal ulcer; test: Routine examination indicators and digestive function before and after drug treatment (safety); assay type: in vivo, human; conditions: after treatment, 4 weeks
Description: as §1, §2
The number of red blood cells, the number of white blood cells, ALT, AST, serum creatinine, urine protein and other laboratory test items were checked before and after treatment. Routine clinical diagnostic criterias were used to determine whether the test items were normal and the normal rate was calculated. Normal rate of test indicators=number of patients with normal test indicators÷total number of patients in this group×100%
Effects of the drug on normal digestive function of the patients were also investigated before and after treatment by determining the rate of loose stool and the rate of constipation: Rate of loose stool=number of patients with loose stool÷total number of patients in this group×100%; and Rate of constipation=number of patients with constipation÷total number of patients in this group×100%.

[4] = for Rate of weight change: after treatment vs before, 4 weeks
Description: as §2
Weight changes of patients before and after treatment were also investigated: Rate of weight change=(weight after treatment−weight before treatment)÷weight before treatment×100%.

[5] = tested on: persons suffering from weight imbalance
[6] = middle dose 400 mg/kg intragastrically once a day

## COc1ccc(-c2cc(=O)c3c(O)cc(O[C@@H]4O[C@H](CO[C@@H]5O[C@@H](C)[C@H](O)[C@@H](O)[C@H]5O)[C@@H](O)[C@H](O)[C@H]4O)cc3o2)cc1O [diosmin, reference compound]
[1]; [6]
  BMI: 7.60 ± 0.39 kg/m^2
[1]; obese model rats
  BMI of animals compared with the model group (in words): no significant difference

## dosmalfate [compound 3]
[2]; Group 0.5 g/day, 10 patients
  Healing rate of ulcers: 30.0%
[2]; Group 1 g/day, 18 patients
  Healing rate of ulcers: 55.6%
[2]; Group 3 g/day, 37 patients
  Healing rate of ulcers: 62.2%
[2]; Group 9 g/day, 10 patients
  Healing rate of ulcers: 80.0%
[2]; Group 18 g/day, 5 patients
  Healing rate of ulcers: 80.0%
[3]; Group 0.5 g
  Normal rate of ALT: 90.0%
  Normal rate of AST: 100.0%
  Normal rate of red blood cells: 100.0%
  Normal rate of serum creatinine: 100.0%
  Normal rate of urine protein: 100.0%
  Normal rate of white blood cells: 100.0%
  Rate of constipation: 0.0%
  Rate of loose stool: 0.0%
[3]; Group 1 g
  Normal rate of ALT: 94.4%
  Normal rate of AST: 100.0%
  Normal rate of red blood cells: 94.4%
  Normal rate of serum creatinine: 100.0%
  Normal rate of urine protein: 94.4%
  Normal rate of white blood cells: 100.0%
  Rate of constipation: 0.0%
  Rate of loose stool: 0.0%
[3]; Group 3 g
  Normal rate of ALT: 91.9%
  Normal rate of AST: 94.6%
  Normal rate of red blood cells: 94.6%
  Normal rate of serum creatinine: 94.6%
  Normal rate of urine protein: 94.6%
  Normal rate of white blood cells: 91.9%
  Rate of constipation: 2.7%
  Rate of loose stool: 0.0%
[3]; Group 9 g
  Normal rate of ALT: 90.0%
  Normal rate of AST: 90.0%
  Normal rate of red blood cells: 90.0%
  Normal rate of serum creatinine: 100.0%
  Normal rate of urine protein: 100.0%
  Normal rate of white blood cells: 100.0%
  Rate of constipation: 0.0%
  Rate of loose stool: 0.0%
[3]; Group 18 g
  Normal rate of ALT: 100.0%
  Normal rate of AST: 100.0%
  Normal rate of red blood cells: 80.0%
  Normal rate of serum creatinine: 100.0%
  Normal rate of urine protein: 100.0%
  Normal rate of white blood cells: 80.0%
  Rate of constipation: 0.0%
  Rate of loose stool: 0.0%
[4]; Group 0.5 g
  Rate of weight change: −4.2%
[4]; Group 1 g
  Rate of weight change: −5.3%
[4]; Group 3 g
  Rate of weight change: −7.0%
[4]; Group 9 g
  Rate of weight change: −7.1%
[4]; Group 18 g
  Rate of weight change: −3.8%
[4]; each dosage group, after 4 weeks of administration
  Effect on weight of ulcer patients (in words): weight loss to varing degrees
[1]; high dose 1,600 mg/kg intragastrically once a day
  BMI: 5.85 ± 0.23 kg/m^2
[1]; low dose 100 mg/kg intragastrically once a day
  BMI: 6.72 ± 0.32 kg/m^2
[1]; [6]
  BMI: 6.06 ± 0.29 kg/m^2
[1]; obese model rats
  BMI of animals compared with the model group (in words): significantly reduced
[1]; obese model rats, same dose
  Relative effectiveness on BMI at the same dose (in words): more effective than compound 1 and compound 2
[5]; A person, 680 μmol/L before, 3 g three times a day, two months, no uric acid-lowering drug
  Uric acid level after administration: 600 µmol/L
[5]; A person, BMI 29 before, 1.5 g three times a day, three months
  BMI index after administration: 25.7
[5]; A person, BMI 32 before, 3 g three times a day, two months
  BMI index after administration: 28.2
[5]; Person, BMI 25 before, 1 g twice a day, two months
  BMI index after administration: 22
[5]; Person, obesity and hyperuricemia, 85 kg before, 3 g three times a day, two months
  Body weight after administration: 75 kg
[5]; Person, polycystic ovary syndrome, 62 kg before, 1.5 g three times a day, three months
  Body weight after administration: 55 kg

## sucralfate [reference compound]
[1]; [6]
  BMI: 7.87 ± 0.34 kg/m^2
[1]; obese model rats
  BMI of animals compared with the model group (in words): no significant difference

Reference: patent US12274710B2, “Compound for regulating body weight imbalance, composition thereof and application thereof” (GUANGZHOU CENTURY CLINICAL RESEARCH CO., LTD, priority 2019, dated 2025)
